Reference: patent US12303509B2, “Compounds for the treatment of BRAF-associated diseases and disorders” (Pfizer Inc., priority 2020, dated 2025)
Where a name gives a salt, the structure may show the parent alone.

Tests used:
P-gp (MDR1) = P-gp (MDR1) (Homo sapiens (Human), UniProt P08183); test: MDR1 LLC-PK1 permeability assay: efflux ratio; type: in vitro ADME; conditions: pig
Source text: (§1) Final organic concentration in the assay was 1%.

H1755 cells = test: Cellular phospho-ERK inhibition assay in H1755 cells; type: cell-based; conditions: Homo sapiens, NCI-H1755, 2 hours treatment, read-out: H1755 Cell IC50
Outline: (§2)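 A375 (DMEM) or H1755 (RPMI) cells in 10% FBS treated 2 h at 37 °C with 9-point series, 66 pM–10 μM, 0.25% DMSO. Phospho-ERK1/2 (Thr202/Tyr204) measured by In Cell Western, normalised to GAPDH and to DMSO and 10 μM binimetinib controls; IC50 by 4-parameter fit.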

[1] = MDR1 LLC-PK1 and BCRP MDCKII permeability assay: permeability coefficient (Papp); type: in vitro ADME
Source text: as §1

[2] = PK (free brain-to-free plasma ratio) (mouse); type: in vivo; conditions: male CD-1 mice, oral gavage 10 mg/kg, unbound brain-to-unbound plasma, read-out: B/P ratio (free)
Protocol: The ability of representative compounds to penetrate the BBB in mice was determined by evaluating the unbound brain-to-unbound plasma (also referred to as free brain-to-free plasma) concentration ratio in male CD-1 mice.
Brain compound levels were generated from oral mouse PK dosing with typical sampling times of 2, 4, 8, 12 and 24 hours post oral gavage dosing at 10 mg/kg. Brain samples were stored at −20±5° C. prior to analysis. Concentrations of test compound in mouse brain homogenate were determined by liquid chromatography tandem mass spectrometry (LC-MS/MS) following protein precipitation with acetonitrile. A 12-point calibration curve, ranging from 0.5 to 10,000 ng/mL, was prepared in duplicate. A solution of 400 μg/mL of test compound in dimethyl sulfoxide (DMSO) was serially diluted (3-fold) in 100% DMSO, and then 2.5 μL of each standard solution was added to 100 μL of naïve male CD-1 mice brain homogenate. To mimic the extraction in the standard curve, 2.5 μL of DMSO was added to all test samples. Both calibration and test brain homogenate samples were spiked with 10 μL of an IS (1 μg/mL of a structural analog). Brain homogenate was generated by adding 0.75 mL of 4:1 water:MeOH to each brain sample followed by homogenization for 1 minute with bead beater tubes a 6 m/s using an MP Fast Prep-24®. Proteins were precipitated from 100 μL of brain homogenate sample by the addition of 300 μL of acetonitrile. Samples were vortex-mixed for 5 minutes and spun in an Allegra X-12R centrifuge (Beckman Coulter, Fullerton, CA; SX4750A rotor) for 15 min at approximately 1,500×g at 4° C. A 100 μL aliquot of each supernatant was transferred via a 550 μL Personal Pipettor (Apricot Designs, Monrovia, CA) to 96-well plates and diluted 1:1 with HPLC grade water. The resulting plates were sealed with aluminum for LC-MS/MS analysis.
Brain-to-plasma ratios were calculated using the concentration of compound measured in the brain divided by the concentration of compound measured in the plasma. Brain-to-plasma ratios were always generated from a single animal and time point. Free brain-to-free plasma ratios were calculated by multiplying the brain-to-plasma ratio by the in vitro brain homogenate free fraction divided by the in vitro plasma free fraction using the following equation: (B/P)*(Bfu/Pfu). Table C provides the free brain-to-free plasma ratios of compounds disclosed herein.

BCRP = BCRP (Homo sapiens (Human), UniProt Q9UNQ0); test: BCRP MDCKII permeability assay: efflux ratio; type: in vitro ADME; conditions: dog
A375 cells = test: Cellular phospho-ERK inhibition assay in A375 cells; type: cell-based; conditions: Homo sapiens, A-375, A375 cells (head prints A357), 2 hours treatment, read-out: A357 cell IC50
Outline: as §2

[3] = molecular target: full-length FLAG-tagged B-Raf(V600E) (Homo sapiens (Human), UniProt P15056, V600E); test: BRAF V600E enzyme assay (TR-FRET competitive displacement); type: binding; conditions: averaged IC50; TR-FRET tracer displacement, 60 min
Outline: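 Displacement of 50 nM Tracer 1710 from 5 nM full-length N-terminally FLAG-tagged B-Raf(V600E), detected by TR-FRET with 0.5 nM Eu anti-FLAG antibody, in 25 mM HEPES pH 7.4, 10 mM MgCl2, 2% DMSO; 60 min at ~22 °C. Compounds 11-point, 3-fold from 10 μM; IC50 from 4-parameter fit at 50 POC.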

P-gp (MDR1), sequence (P08183 whole entry, species assumed): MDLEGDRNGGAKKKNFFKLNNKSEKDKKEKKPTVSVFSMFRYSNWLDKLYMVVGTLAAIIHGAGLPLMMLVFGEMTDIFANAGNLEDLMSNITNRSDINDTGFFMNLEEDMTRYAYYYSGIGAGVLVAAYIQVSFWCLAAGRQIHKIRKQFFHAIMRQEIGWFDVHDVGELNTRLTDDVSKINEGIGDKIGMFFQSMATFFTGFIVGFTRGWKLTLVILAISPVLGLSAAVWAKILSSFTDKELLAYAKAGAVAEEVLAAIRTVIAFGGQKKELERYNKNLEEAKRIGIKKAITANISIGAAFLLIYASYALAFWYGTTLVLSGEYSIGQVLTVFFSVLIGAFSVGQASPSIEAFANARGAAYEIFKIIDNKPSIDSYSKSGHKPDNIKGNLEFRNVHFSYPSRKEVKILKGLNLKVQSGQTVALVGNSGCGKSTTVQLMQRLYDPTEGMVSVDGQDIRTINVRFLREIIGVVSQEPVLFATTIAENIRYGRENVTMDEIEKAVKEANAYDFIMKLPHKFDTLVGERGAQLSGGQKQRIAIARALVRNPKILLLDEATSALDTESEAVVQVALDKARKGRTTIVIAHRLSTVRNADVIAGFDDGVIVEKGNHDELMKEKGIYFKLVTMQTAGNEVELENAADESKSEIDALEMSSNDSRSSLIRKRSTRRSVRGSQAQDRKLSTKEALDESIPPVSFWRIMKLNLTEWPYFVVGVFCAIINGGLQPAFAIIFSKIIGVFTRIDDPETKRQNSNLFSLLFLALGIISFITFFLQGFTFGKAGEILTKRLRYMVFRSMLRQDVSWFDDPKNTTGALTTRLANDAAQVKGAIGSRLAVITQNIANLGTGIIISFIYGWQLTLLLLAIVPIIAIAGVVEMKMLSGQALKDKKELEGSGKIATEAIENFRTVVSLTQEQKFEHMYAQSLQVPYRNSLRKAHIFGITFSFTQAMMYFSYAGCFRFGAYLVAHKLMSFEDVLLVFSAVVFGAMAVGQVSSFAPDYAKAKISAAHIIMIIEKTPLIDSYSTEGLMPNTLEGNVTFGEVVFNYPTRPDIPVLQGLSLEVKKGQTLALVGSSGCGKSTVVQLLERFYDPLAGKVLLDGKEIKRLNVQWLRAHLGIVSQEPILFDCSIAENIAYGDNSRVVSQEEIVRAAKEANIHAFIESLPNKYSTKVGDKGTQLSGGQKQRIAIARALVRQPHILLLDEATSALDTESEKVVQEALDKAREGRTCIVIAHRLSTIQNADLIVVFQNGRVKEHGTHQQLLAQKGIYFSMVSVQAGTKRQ
full-length FLAG-tagged B-Raf(V600E), sequence (P15056 whole entry V600E): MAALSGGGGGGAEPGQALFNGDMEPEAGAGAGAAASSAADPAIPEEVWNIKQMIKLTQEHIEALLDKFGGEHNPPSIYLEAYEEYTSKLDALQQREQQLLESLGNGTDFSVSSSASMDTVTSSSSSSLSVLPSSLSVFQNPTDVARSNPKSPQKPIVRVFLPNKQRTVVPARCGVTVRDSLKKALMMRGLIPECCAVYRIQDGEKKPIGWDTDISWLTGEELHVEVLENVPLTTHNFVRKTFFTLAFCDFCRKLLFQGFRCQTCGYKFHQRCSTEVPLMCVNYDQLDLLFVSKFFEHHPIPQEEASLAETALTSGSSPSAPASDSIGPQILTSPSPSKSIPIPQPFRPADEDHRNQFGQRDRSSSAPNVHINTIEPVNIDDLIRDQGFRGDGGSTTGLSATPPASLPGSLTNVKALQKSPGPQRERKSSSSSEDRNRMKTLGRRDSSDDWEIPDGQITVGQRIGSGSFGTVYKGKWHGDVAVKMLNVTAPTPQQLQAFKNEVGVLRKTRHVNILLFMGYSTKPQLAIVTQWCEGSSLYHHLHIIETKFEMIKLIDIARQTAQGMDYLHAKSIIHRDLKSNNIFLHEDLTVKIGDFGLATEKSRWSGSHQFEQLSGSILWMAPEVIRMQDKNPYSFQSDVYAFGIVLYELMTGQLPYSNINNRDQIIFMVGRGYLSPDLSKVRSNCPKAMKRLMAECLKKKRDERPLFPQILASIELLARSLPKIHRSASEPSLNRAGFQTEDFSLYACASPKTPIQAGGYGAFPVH
BCRP, sequence (Q9UNQ0 whole entry): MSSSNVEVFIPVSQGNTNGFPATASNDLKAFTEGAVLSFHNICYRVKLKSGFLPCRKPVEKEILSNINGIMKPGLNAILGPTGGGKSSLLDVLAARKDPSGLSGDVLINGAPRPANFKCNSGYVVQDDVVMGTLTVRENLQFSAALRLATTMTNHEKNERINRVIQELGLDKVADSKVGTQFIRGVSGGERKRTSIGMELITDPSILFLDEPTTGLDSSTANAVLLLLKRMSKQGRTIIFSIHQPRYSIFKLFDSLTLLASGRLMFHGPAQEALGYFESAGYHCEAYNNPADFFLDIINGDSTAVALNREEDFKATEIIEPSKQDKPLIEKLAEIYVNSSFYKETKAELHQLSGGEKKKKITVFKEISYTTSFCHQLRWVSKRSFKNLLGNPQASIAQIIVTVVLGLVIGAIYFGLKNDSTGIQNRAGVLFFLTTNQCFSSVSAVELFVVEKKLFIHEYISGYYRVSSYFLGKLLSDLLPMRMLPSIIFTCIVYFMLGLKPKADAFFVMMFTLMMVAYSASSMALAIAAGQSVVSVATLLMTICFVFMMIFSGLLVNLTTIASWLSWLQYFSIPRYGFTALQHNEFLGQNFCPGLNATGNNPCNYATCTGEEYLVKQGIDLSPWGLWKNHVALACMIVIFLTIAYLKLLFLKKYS

Structure (SMILES)	efflux ratio at 2 h, 1 µM (P-gp (MDR1))	IC50 (H1755 cells) [nM]	Papp at 2 h, 1 µM [1] [nm/s]	Kp [2]	efflux ratio at 2 h, 1 µM (BCRP)	IC50 (A375 cells) [nM]	IC50 [3] [nM]
Cn1cnc2ccc(Oc3c(F)ccc(NS(=O)(=O)N4CC[C@@H](F)C4)c3Cl)c(Cl)c2c1=O [Example 38, (R)-N-(2-chloro-3-((5-chloro-3-methyl-4-oxo-3,4-dihydroquinazolin-6-yl)oxy)-4-fluorophenyl)-3-fluoropyrrolidine-1-sulfonamide]	1.2	27	330	0.2 to 0.24	1.8	5	2
Cn1cnc2ccc(Nc3c(F)ccc(NS(=O)(=O)N4CC[C@@H](F)C4)c3Cl)c(Cl)c2c1=O [Example 19, (R)-N-(2-chloro-3-((5-chloro-3-methyl-4-oxo-3,4-dihydroquinazolin-6-yl)amino)-4-fluorophenyl)-3-fluoropyrrolidine-1-sulfonamide]	2.1	39	300	0.61 to 0.83	1.3	5	4
Cn1cnc2ccc(Nc3c(F)ccc(NS(=O)(=O)N4CC5CC4C5)c3Cl)c(Cl)c2c1=O [Example 9, N-(2-chloro-3-((5-chloro-3-methyl-4-oxo-3,4-dihydroquinazolin-6-yl)amino)-4-fluorophenyl)-2-azabicyclo[2.1.1]hexane-2-sulfonamide trifluoroacetate]	1.1	85	290	0.36 to 0.4	1.1	14	7
Cn1cnc2ccc(Nc3c(F)ccc(NS(=O)(=O)N4CCCC4)c3Cl)c(Cl)c2c1=O [Example 12, N-(2-chloro-3-((5-chloro-3-methyl-4-oxo-3,4-dihydroquinazolin-6-yl)amino)-4-fluorophenyl)pyrrolidine-1-sulfonamide trifluoroacetate]	1.1	97	280	0.34 to 0.39	0.9	8	7
CO[C@@H]1CCN(S(=O)(=O)Nc2ccc(F)c(Nc3ccc4ncn(C)c(=O)c4c3Cl)c2Cl)C1 [Example 6, (R)-N-(2-chloro-4-fluoro-3-((5-chloro-3-methyl-4-oxo-3,4-dihydroquinazolin-6-yl)amino)phenyl)-3-methoxypyrrolidine-1-sulfonamide]	1.9	66	270	0.87 to 1.76	1.3	6	13
Cn1cnc2ccc(Nc3c(F)ccc(NS(=O)(=O)N4CC[C@@H](OC(F)F)C4)c3Cl)c(Cl)c2c1=O [Example 29, (R)-N-(2-chloro-3-((5-chloro-3-methyl-4-oxo-3,4-dihydroquinazolin-6-yl)amino)-4-fluorophenyl)-3-(difluoromethoxy)pyrrolidine-1-sulfonamide]	1.7	35	280	0.41 to 0.55	2.9	9	3
Cn1cnc2ccc(Nc3c(F)ccc(NS(=O)(=O)N4CC5CC5C4)c3Cl)c(F)c2c1=O (stereo not shown) [Example 30, N-(2-chloro-4-fluoro-3-((5-fluoro-3-methyl-4-oxo-3,4-dihydroquinazolin-6-yl)amino)phenyl)-3-azabicyclo[3.1.0]hexane-3-sulfonamide trifluoroacetate]	1.5	42	400	0.51 to 0.64	1.2	4	2
COC1CN(S(=O)(=O)Nc2ccc(F)c(Nc3ccc4ncn(C)c(=O)c4c3Cl)c2Cl)C1 [Example 129, N-(2-chloro-3-((5-chloro-3-methyl-4-oxo-3,4-dihydroquinazolin-6-yl)amino)-4-fluorophenyl)-3-methoxyazetidine-1-sulfonamide]	1.6	37	370	0.18 to 0.22	5.3	9	12
CO[C@@H]1CCN(S(=O)(=O)Nc2ccc(F)c(Oc3ccc4ncn(C)c(=O)c4c3Cl)c2Cl)C1 [Example 37, (R)-N-(2-chloro-3-((5-chloro-3-methyl-4-oxo-3,4-dihydroquinazolin-6-yl)oxy)-4-fluorophenyl)-3-methoxypyrrolidine-1-sulfonamide]	2.4	33	290	0.66 to 0.73	1.5	4	4
Cn1cnc2ccc(Nc3c(F)c(F)cc(NS(=O)(=O)N4CC5CC4C5)c3Cl)c(F)c2c1=O [Example 41, N-(2-chloro-4,5-difluoro-3-((5-fluoro-3-methyl-4-oxo-3,4-dihydroquinazolin-6-yl)amino)phenyl)-2-azabicyclo[2.1.1]hexane-2-sulfonamide trifluoroacetate]	1.9	42	290	0.35 to 0.45	2.5	5	3
COC1CN(S(=O)(=O)Nc2ccc(F)c(Nc3ccc4ncn(C)c(=O)c4c3F)c2Cl)C1 [Example 130, N-(2-chloro-4-fluoro-3-((5-fluoro-3-methyl-4-oxo-3,4-dihydroquinazolin-6-yl)amino)phenyl)-3-methoxyazetidine-1-sulfonamide]	2.3	38	300	0.12 to 0.16	7.6	7	11
Cn1cnc2ccc(Oc3c(F)ccc(NS(=O)(=O)N4CC[C@@H](F)C4)c3Cl)c(F)c2c1=O [Example 20, (R)-N-(2-chloro-4-fluoro-3-((5-fluoro-3-methyl-4-oxo-3,4-dihydroquinazolin-6-yl)oxy)phenyl)-3-fluoropyrrolidine-1-sulfonamide]	2.2	29	370	0.4 to 0.58	1.8	2	3
Cn1cnc2ccc(Oc3c(F)ccc(NS(=O)(=O)N4CCCC4)c3Cl)c(F)c2c1=O [Example 44, N-(2-chloro-4-fluoro-3-((5-fluoro-3-methyl-4-oxo-3,4-dihydroquinazolin-6-yl)oxy)phenyl)pyrrolidine-1-sulfonamide trifluoroacetate]	1.4	56	340	0.35 to 0.47	0.9	3	2
Cc1c(Nc2cc(Cl)cc(NS(=O)(=O)N3CCCC3)c2F)ccc2ncn(C)c(=O)c12 [Example 104, N-(5-chloro-3-((3,5-dimethyl-4-oxo-3,4-dihydroquinazolin-6-yl)amino)-2-fluorophenyl)pyrrolidine-1-sulfonamide]	1.2	307	220		1.3	133	5
